Like-named read-outs stand apart in the source and are kept apart here.
Columns and labels:
FGF-R4 ECD [1] = target: T1, FGF-R4 ECD (Homo sapiens, UniProt P22455); experiment: multi-concentration BLI of purified peptides; assay type: binding; conditions: purified NNK library peptides
T1 construct: DNA constructs for the extracellular domain (ECD) of human FGF-; HPC4 (C); made in house; host or cells: HEK 293-6E
T1 sequence (P22455 22-369 limits assumed): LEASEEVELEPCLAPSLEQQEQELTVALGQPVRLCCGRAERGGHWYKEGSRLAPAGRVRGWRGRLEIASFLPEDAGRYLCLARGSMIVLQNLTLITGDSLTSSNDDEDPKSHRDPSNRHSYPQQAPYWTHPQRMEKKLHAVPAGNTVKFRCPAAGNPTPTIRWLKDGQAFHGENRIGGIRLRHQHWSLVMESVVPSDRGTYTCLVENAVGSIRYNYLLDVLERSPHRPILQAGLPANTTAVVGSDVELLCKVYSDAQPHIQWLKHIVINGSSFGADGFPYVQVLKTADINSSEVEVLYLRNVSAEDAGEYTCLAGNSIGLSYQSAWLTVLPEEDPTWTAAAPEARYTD
Summary of the method: (§1)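 Streptavidin biosensors carrying biotinylated FGF receptor ECD were immersed in peptide (~1 μM for crude single-point runs, a concentration series for purified peptides) and then in peptide-free buffer. KD was obtained by fitting the BLI association and dissociation curves.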

[2] = target: T2, FGFR1c/KLB (Fc-fused human FGF-R1alpha(IIIc) with beta-klotho) (Homo sapiens, UniProt P11362); experiment: AlphaScreen FGF21 competitive binding assay
T2 sequence (P11362 22-376 limits assumed): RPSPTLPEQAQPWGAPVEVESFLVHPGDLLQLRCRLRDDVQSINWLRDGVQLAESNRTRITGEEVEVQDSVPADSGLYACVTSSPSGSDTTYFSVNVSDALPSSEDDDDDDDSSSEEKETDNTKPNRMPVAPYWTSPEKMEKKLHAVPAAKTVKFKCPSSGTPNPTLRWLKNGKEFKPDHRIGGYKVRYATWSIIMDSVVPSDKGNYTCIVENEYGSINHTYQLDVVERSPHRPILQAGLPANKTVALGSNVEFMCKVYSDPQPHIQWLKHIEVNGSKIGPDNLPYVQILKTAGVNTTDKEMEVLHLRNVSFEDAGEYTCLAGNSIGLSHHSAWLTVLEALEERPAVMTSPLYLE

FGF-R4 ECD [3] = target: T1, FGF-R4 ECD; experiment: single concentration BLI of crude peptides; assay type: binding; conditions: crude NNK peptides, single concentration BLI (Table S3); read-out: KD (4)
Summary of the method: as §1

FGF-R3C ECD [4] = target: T3, FGF-R3C ECD (Homo sapiens, UniProt P22607); experiment: biochemical; assay type: binding; set-up: DNA constructs for the extracellular domain (ECD) of human FGF-; HPC4 (C); made in house; host or cells: HEK 293-6E
T3 sequence (P22607 23-375 limits assumed): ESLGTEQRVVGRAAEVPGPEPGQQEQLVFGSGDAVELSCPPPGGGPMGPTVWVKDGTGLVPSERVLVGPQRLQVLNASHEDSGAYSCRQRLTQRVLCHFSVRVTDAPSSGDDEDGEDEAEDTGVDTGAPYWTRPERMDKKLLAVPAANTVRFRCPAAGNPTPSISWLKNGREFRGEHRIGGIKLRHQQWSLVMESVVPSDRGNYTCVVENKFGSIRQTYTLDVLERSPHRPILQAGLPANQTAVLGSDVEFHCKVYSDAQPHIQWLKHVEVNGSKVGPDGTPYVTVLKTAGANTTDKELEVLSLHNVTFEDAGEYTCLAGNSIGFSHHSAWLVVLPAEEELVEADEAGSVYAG
Summary of the method: as §1

FGF-R1C ECD [5] = target: T4, FGF-R1C ECD (Homo sapiens, UniProt P11362); experiment: biochemical; assay type: binding; set-up: DNA constructs for the extracellular domain (ECD) of human FGF-; HPC4 (C); made in house; host or cells: HEK 293-6E
T4 sequence (P11362 22-376 limits assumed): T2 sequence (P11362 22-376 limits assumed)
Summary of the method: as §1

[6] = target: T5, FGFR4/KLB (Fc-fused human FGF-R4 with beta-klotho) (Homo sapiens, UniProt P22455); experiment: AlphaScreen FGF21 competitive binding assay
T5 sequence (P22455 22-369 limits assumed): T1 sequence (P22455 22-369 limits assumed)
Procedure: Alphascreen binding assay
The competitive binding assay was carried out according to the methods detailed in Hansen. et al using
AlphaScreen.3 All reagents and samples were prepared in assay buffer: 40mM Hepes, 140mM NaCl, 1mM
CaCl2, 0,05% Tween20, pH=7.5, 0.1% BSA. In brief, recombinant human beta-klotho (R&D Systems) was
preincubated for 60 min with the ectodomain, either Fc-fused human FGF-R1alpha(IIIc), FGF-R3alpha(IIIc)
or FGF-R4 (R&D Systems), and the mixture was added to the test peptides in OptiPlate™ (PerkinElmer).
Biotinylated FGF21 and heparin were further added to each well. AlphaScreen bead mix (1:1 mix of Protein
A acceptor beads/ streptavidin-coated donor beads, PerkinElmer) were added to each well incubated
overnight at RT in the dark, and measured on a plate reader (Envision). Assays were carried out in triplicates
with concentrations ranging from 3, 10, 30, 100, 300 ,1000 and 3000 nM of peptide. No peptide control
(media only) was used as a negative control, and unlabeled FGF21 and FGF1 as positive control.
competing with biotinylated natural FGF21 ligand.

FGF-R3C ECD [7] = target: T3, FGF-R3C ECD; experiment: biochemical
Summary of the method: as §1

FGF-R1C ECD [8] = target: T4, FGF-R1C ECD; experiment: biochemical
Summary of the method: as §1

[9] = target: T6, FGFR3c/BKL (Fc-fused human FGF-R3alpha(IIIc) with beta-klotho) (Homo sapiens, UniProt P22607); experiment: AlphaScreen FGF21 competitive binding assay
T6 sequence (P22607 23-375 limits assumed): T3 sequence (P22607 23-375 limits assumed)

Row | Structure (SMILES) | Kd (FGF-R4 ECD [1]) [µM] | IC50 [2] [µM] | Kd (FGF-R4 ECD [3]) [µM] | Kd (FGF-R3C ECD [4]) [µM] | Kd (FGF-R1C ECD [5]) [µM] | IC50 [6] [µM] | Kd (FGF-R3C ECD [7]) [µM] | Kd (FGF-R1C ECD [8]) [µM] | IC50 [9] [µM]
1 | CC[C@H](C)[C@@H]1NC(=O)[C@@H](NC(=O)[C@@H](N)CCSC)CSSC[C@@H](C(=O)NCC(=O)N[C@@H](CO)C(=O)NCC(=O)N[C@@H](CO)C(=O)N[C@@H](CC(=O)O)C(=O)N[C@@H](Cc2ccc(O)cc2)C(=O)N[C@@H](CCCCN)C(=O)N[C@@H](CC(=O)O)C(=O)N[C@@H](CC(=O)O)C(=O)N[C@@H](CC(=O)O)C(=O)N[C@@H](CC(=O)O)C(=O)N[C@@H](CCCCN)C(N)=O)NC(=O)[C@H](CCCNC(=N)N)NC(=O)[C@H]([C@@H](C)O)NC(=O)[C@H](Cc2c[nH]c3ccccc23)NC(=O)[C@H](Cc2ccc(O)cc2)NC(=O)[C@H](CCC(N)=O)NC(=O)[C@H](Cc2ccc(O)cc2)NC(=O)[C@H]([C@@H](C)O)NC(=O)[C@H](Cc2ccc(O)cc2)NC(=O)[C@H](Cc2c[nH]c3ccccc23)NC(=O)[C@H](CCCCN)NC(=O)CNC1=O [1C.1] | > 1 | 0.249 | > 10 | > 10 | 0.488 | > 1 | > 1 | 0.111 | > 1
2 | CSCC[C@H](N)C(=O)N[C@H]1CSSC[C@@H](C(=O)NCC(=O)N[C@@H](CO)C(=O)NCC(=O)N[C@@H](CO)C(=O)N[C@@H](CC(=O)O)C(=O)N[C@@H](Cc2ccc(O)cc2)C(=O)N[C@@H](CCCCN)C(=O)N[C@@H](CC(=O)O)C(=O)N[C@@H](CC(=O)O)C(=O)N[C@@H](CC(=O)O)C(=O)N[C@@H](CC(=O)O)C(=O)N[C@@H](CCCCN)C(N)=O)NC(=O)[C@H](C(C)C)NC(=O)[C@H](Cc2c[nH]c3ccccc23)NC(=O)[C@H](Cc2ccc(O)cc2)NC(=O)[C@H](CCCNC(=N)N)NC(=O)[C@H](CC(=O)O)NC(=O)[C@H](Cc2ccccc2)NC(=O)[C@H](Cc2c[nH]cn2)NC(=O)[C@H](CCCNC(=N)N)NC(=O)[C@H]([C@@H](C)O)NC(=O)[C@H](Cc2c[nH]c3ccccc23)NC(=O)[C@H](CC(C)C)NC(=O)[C@H](CC(C)C)NC1=O [1C.2] | > 1 | 0.108 | > 10 | > 10 | 0.095 | > 1 | > 1 | 0.064 | > 1
3 | CC[C@H](C)[C@@H]1NC(=O)[C@@H](NC(=O)[C@H](CCSC)NC(C)=O)CSSC[C@@H](C(=O)NCC(=O)N[C@@H](CO)C(=O)NCC(=O)N[C@@H](CO)C(=O)N[C@@H](CC(=O)O)C(=O)N[C@@H](Cc2ccc(O)cc2)C(=O)N[C@@H](CCCCN)C(=O)N[C@@H](CC(=O)O)C(=O)N[C@@H](CC(=O)O)C(=O)N[C@@H](CC(=O)O)C(=O)N[C@@H](CC(=O)O)C(=O)N[C@@H](CCCCN)C(N)=O)NC(=O)[C@H](C(C)C)NC(=O)[C@H](C(C)C)NC(=O)[C@H](Cc2c[nH]c3ccccc23)NC(=O)[C@H](Cc2ccccc2)NC(=O)[C@H](CC(=O)O)NC(=O)[C@H](CO)NC(=O)[C@H](CC(C)C)NC(=O)[C@H](CCCNC(=N)N)NC(=O)[C@H](Cc2ccc(O)cc2)NC1=O [1C.6] | 0.07 | 0.029 | 0.047 | 0.012 | 0.019 | 0.06 | 0.361 | 0.053 | 0.018
4 | CC[C@H](C)[C@@H]1NC(=O)[C@@H](NC(=O)[C@H](CCSC)NC(C)=O)CSSC[C@@H](C(=O)NCC(=O)N[C@@H](CO)C(=O)NCC(=O)N[C@@H](CO)C(=O)N[C@@H](CC(=O)O)C(=O)N[C@@H](Cc2ccc(O)cc2)C(=O)N[C@@H](CCCCN)C(=O)N[C@@H](CC(=O)O)C(=O)N[C@@H](CC(=O)O)C(=O)N[C@@H](CC(=O)O)C(=O)N[C@@H](CC(=O)O)C(=O)N[C@@H](CCCCN)C(N)=O)NC(=O)[C@H](CCC(=O)O)NC(=O)[C@H](C(C)C)NC(=O)[C@H](Cc2c[nH]c3ccccc23)NC(=O)[C@H](Cc2ccccc2)NC(=O)[C@H](CC(=O)O)NC(=O)[C@H](CO)NC(=O)[C@H](CC(C)C)NC(=O)[C@H](CCCNC(=N)N)NC(=O)[C@H](Cc2ccc(O)cc2)NC1=O [1C.7] | > 1 | 0.473 | 0.045 | 0.281 | 0.047 | 0.406 | > 1 | > 1 | 0.631
5 | CC[C@H](C)[C@@H]1NC(=O)[C@@H]2CCCN2C(=O)[C@H](Cc2ccccc2)NC(=O)[C@@H]2CCCN2C(=O)[C@H](Cc2c[nH]c3ccccc23)NC(=O)[C@@H]2CCCN2C(=O)[C@H](Cc2ccccc2)NC(=O)[C@H](CCCCN)NC(=O)[C@H]([C@@H](C)O)NC(=O)[C@@H](NC(=O)[C@@H](N)CCSC)CSSC[C@@H](C(=O)NCC(=O)N[C@@H](CO)C(=O)NCC(=O)N[C@@H](CO)C(=O)N[C@@H](CC(=O)O)C(=O)N[C@@H](Cc2ccc(O)cc2)C(=O)N[C@@H](CCCCN)C(=O)N[C@@H](CC(=O)O)C(=O)N[C@@H](CC(=O)O)C(=O)N[C@@H](CC(=O)O)C(=O)N[C@@H](CC(=O)O)C(=O)N[C@@H](CCCCN)C(N)=O)NC(=O)[C@H](C)NC(=O)[C@H](Cc2c[nH]c3ccccc23)NC(=O)[C@H](Cc2ccccc2)NC1=O [1C.8] | 0.464 | 0.112 | 0.07 | 0.047 | 0.155 | 0.431 | > 1 | 0.323 | > 1
6 | CC[C@H](C)[C@@H]1NC(=O)[C@@H](NC(=O)[C@@H](N)CCSC)CSSC[C@@H](C(=O)NCC(=O)N[C@@H](CO)C(=O)NCC(=O)N[C@@H](CO)C(=O)N[C@@H](CC(=O)O)C(=O)N[C@@H](Cc2ccc(O)cc2)C(=O)N[C@@H](CCCCN)C(=O)N[C@@H](CC(=O)O)C(=O)N[C@@H](CC(=O)O)C(=O)N[C@@H](CC(=O)O)C(=O)N[C@@H](CC(=O)O)C(=O)N[C@@H](CCCCN)C(N)=O)NC(=O)[C@H](CC(C)C)NC(=O)[C@H](Cc2c[nH]c3ccccc23)NC(=O)[C@H](Cc2ccccc2)NC(=O)[C@H](CC(C)C)NC(=O)[C@@H]2CCCN2C(=O)[C@H](CCC(N)=O)NC(=O)[C@H](CCCNC(=N)N)NC(=O)[C@H](C)NC(=O)[C@@H]2CCCN2C(=O)[C@H](Cc2c[nH]c3ccccc23)NC(=O)[C@H](CCCNC(=N)N)NC1=O [1C.9] | 0.082 | 0.017 | 0.082 | 0.112 | 0.019 | 0.067 | 0.047 | 0.001 | 0.015

Reference: PMC10763615, “Identification and engineering of potent cyclic peptides with selective or promiscuous binding through biochemical profiling and bioinformatic data analysis” (RSC Chemical Biology, 2023)
